Assay results reported in patent publication US20210346328A1, “COMPOSITIONS AND METHODS FOR TREATING METABOLIC DISORDERS” (The Johns Hopkins University, priority 2018, published 2021).

Experiments:
CREB signaling in VMH = test: CREB phosphorylation in hypothalamus (VMH) after injection; assay type: in vivo, mouse
Procedure: FIG. 28. (A) Western blot analysis of HTR2C and p-CREB in hypothalamus tissue from 12-week-old mice after PGE2 or vehicle injection at different periods. […] DAPI stains nuclei blue. Scale bar, 50 μm.
The femurs were collected and fixed in 4% paraformaldehyde overnight and decalcified by using 10% EDTA (pH, 7.4) (Amresco, 0105) for 21 days. The samples were then dehydrated with 30% sucrose for 24 h and embedded in paraffin or optimal cutting temperature compound (Sakura Finetek). 4-μm-thick coronal-oriented sections of the femur were prepared for hematoxylin and eosin staining. The femurs were fixed for 4 h with 4% paraformaldehyde at 4° C. and then decalcified at 4° C. using 0.5M EDTA (pH, 7.4) for 24 h with constant shaking. The samples were dehydrated in 20% sucrose and 2% polyvinylpyrrolidone (PVP) solution for 24 h and embedded in 8% gelatin (Sigma-Aldrich, G1890) in the presence of 20% sucrose and 2% PVP. Forty-μm-thick coronal-oriented sections of the femurs were obtained.

[1] = tested on: EP4 in the sensory nerves; test: PGE2-induced bone formation, trichrome and calcein double labeling; assay type: in vivo, mouse; settings: EP4Avil−/− mice; 3 mg per kg per day PGE2 for 3 consecutive days
Procedure: (§1) FIG. 9. […] DAPI stains nuclei blue. […] Calcein was injected 5 days and 1 day before sacrifice. Representative images of calcein double labeling of femoral trabecular bone with quantification of mineral apposition rate (MAR) and bone formation rate (BFR). Scale bar, 20 μm. […] (Student t-test, except j with ANOVA)
(§2) As EP4 expression is also known to express in osteoblasts, osteoblastic cell-specific knockout EP4 mice were generated by crossing […] mice with osteocalcin-cre (OC-cre) mice (FIG. 12A).
(§3) A double-labeling procedure was performed to measure dynamic bone formation. Briefly, 0.1% calcein (Sigma-Aldrich, C0875) was injected in phosphate-buffered saline at a concentration of 10mg per kg into the mice subcutaneously 7 days and 1 day before sacrifice. The double-labeling images of undecalcified bone slices were captured using a fluorescence microscope. Trabecular bone formation in four randomly selected visual fields was analyzed in the distal metaphyseal area of the femur.

[2] = target: EP4 in the sensory nerves (Mus musculus, UniProt P32240); test: as above; assay type: in vivo; settings: wild-type mice; 3 mg per kg per day PGE2 for 3 consecutive days
Procedure: as §1, §2, §3

DRG neurons = test: Calcium imaging of isolated DRG neurons; settings: DRG neurons pre-incubated with 10 μM PGE2 for 5 min, relative to vehicle-treated neurons
15-PGDH [3] = target: T1, 15-PGDH (Mus musculus, UniProt Q8VCC1); test: Bone regeneration after femoral bone marrow ablation; assay type: in vivo
T1 sequence (Q8VCC1 1-269): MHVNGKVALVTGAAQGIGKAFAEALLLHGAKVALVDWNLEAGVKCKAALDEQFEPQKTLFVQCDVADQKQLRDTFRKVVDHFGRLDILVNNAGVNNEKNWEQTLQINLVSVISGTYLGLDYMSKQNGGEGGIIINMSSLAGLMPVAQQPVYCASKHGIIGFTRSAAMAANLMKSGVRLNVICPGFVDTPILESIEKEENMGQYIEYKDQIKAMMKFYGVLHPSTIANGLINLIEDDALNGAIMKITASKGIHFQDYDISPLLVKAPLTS
From the text: FIG. 31. […] Scale bar: 1 mm. Selected areas for the measurements of bone volume (BV)/tissue volume (TV) were indicated with a yellow square. b Representative images of hematoxylin-eosin staining, double immunofluorescence analysis of CD31^+ Emcn^+ cells, and immunofluorescence analysis of Leptin receptor (LepR)^+ cells in the regeneration area. Scale bar, 100 μm. c Graphic illustration of this study. When bone density decreases by osteoclast bone resorption, PGE2 secretion by osteoblastic cells increases at bone remodeling sites. PGE2 activates EP4 receptor at sensory nerve to tune down sympathetic tones for osteoblast differentiation at the bone remodeling microenvironment. The sensory nerve controlling process is likely a temporal-spatial precision action. […] (ANOVA)
PGE2 has been reported recently to potentiate regeneration of multiple tissues (see, Zhang, Y. et al. Science 348, aaa2340, doi:10.1126/science.aaa2340 (2015)). To investigate whether PGE2 induces tissue regeneration through sensory nerves, experiments were conducted that assessed whether PGE2 induces bone regeneration. […] However, the regeneration of trabecular bone by SW033291 was obstructed in EP4Avil^−/− mice (FIG. 31A, B). […] Thus, PGE2 stimulates bone regeneration through sensory nerves.
The femurs were harvested from mice, and the soft tissue around the bone was removed, followed by fixation overnight using 4% paraformaldehyde. μCT analyses were performed by using a high-resolution μCT scanner (SkyScan, 1174). The voltage of the scanning procedure was 65 kv with a 153-μA current. The resolution was set to 8.7 μm per pixel. Reconstruction software (NRecon, v1.6, SkyScan), data analysis software (CTAn, v1.9, SkyScan), and 3D model visualization software (CTVol, v2.0, SkyScan) were used to analyze the diaphyseal cortical bone and the metaphyseal trabecular bone parameters of the femurs. Experiments were conducted that created cross-sectional images of the femur to perform 2D analyses of the cortical bone and 3D analyses of the trabecular bone. The region of interest (ROI) of the trabecular bone was drawn beginning from 5% of the femur length proximal to the distal metaphyseal growth plate and extending proximally for another 5% of the total femur length. The trabecular bone volume fraction (BV/TV), trabecular thickness (Tb. Th), trabecular number (Tb. N), and trabecular separation (Tb. Sp) were collected from the 3D analyses data and used to represent the trabecular bone parameters. The cortical bone ROI was drawn beginning from 20% of femur length proximal to distal metaphyseal growth plate and extending proximally to another 10% of the total femur length. […]

15-PGDH [4] = target: T1, 15-PGDH; test: Liver regeneration after partial hepatectomy; assay type: in vivo; settings: TrkAAvil−/− mice treated with SW033291 relative to WT littermates
From the text: FIG. 32. (A) Double-immunofluorescence images of liver tissue sections from TrkA^wt and TrkAAvil^−/− mice with vehicle or SW033291 treatment using antibodies against and Ki67 (red) and CGRP (green). DAPI stains nuclei blue. Percentages of the Ki67+cells are shown in the right panel. Scale bar, 100 μm.(B) BrdU staining images of liver tissue sections from TrkA^wt and TrkAAvil^−/− mice with vehicle or SW033291 treatment. Scale bar, […]. Percentages of the BrdU+cells are shown in the right panel. […] (ANOVA).
To further investigate whether PGE2 induces regeneration by sensory nerves of tissues other than bone, experiments were conducted that performed partial hepatectomy in TrkAAvil^−/− mice and their WT littermates treated with SW033291 or vehicle.
Partial hepatectomy was used for the liver regeneration model. 10- to 12-week-old […] male mice were anesthetized, as described above. A partial (two-thirds) hepatectomy was performed by resecting the median and left lateral hepatic lobes^54. The remnant livers were harvested after mice sacrifice. SW033291 was dissolved in a vehicle of 10% ethanol, 5% Cremophor EL, and 85% dextrose 5% in water.

[5] = tested on: sensory nerves of iDTRAvil mice; settings: mouse, in vivo

Sequence of EP4 in the sensory nerves (Mus musculus, UniProt P32240) (P32240 whole entry): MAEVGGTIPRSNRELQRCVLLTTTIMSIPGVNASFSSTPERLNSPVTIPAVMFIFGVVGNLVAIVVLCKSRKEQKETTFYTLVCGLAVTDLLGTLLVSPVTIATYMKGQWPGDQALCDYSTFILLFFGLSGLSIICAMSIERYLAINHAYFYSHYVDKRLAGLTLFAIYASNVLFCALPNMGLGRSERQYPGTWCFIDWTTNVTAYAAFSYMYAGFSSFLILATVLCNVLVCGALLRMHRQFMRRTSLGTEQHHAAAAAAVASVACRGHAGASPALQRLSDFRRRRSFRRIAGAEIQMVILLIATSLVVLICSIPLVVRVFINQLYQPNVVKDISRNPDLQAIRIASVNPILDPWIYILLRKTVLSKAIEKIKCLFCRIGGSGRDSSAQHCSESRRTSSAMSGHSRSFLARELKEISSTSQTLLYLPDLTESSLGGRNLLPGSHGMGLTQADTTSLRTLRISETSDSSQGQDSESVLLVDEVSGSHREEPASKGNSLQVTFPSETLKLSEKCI

With `O=C(O)CCC/C=C\C[C@H]1C(=O)C[C@@H](O)[C@@H]1/C=C/[C@@H](O)CCc1ccccc1` [EP1/3 agonist] the “phosphorylation of CREB (pCREB level) in VMH” value (CREB signaling in VMH; C57BL/6 mice, agonist 200 ug per kg, 6 hours, relative to vehicle-treated mice) was “did not increase”.

For `CCCCC[C@H](O)/C=C/[C@H]1[C@H](O)CC(=O)[C@@H]1C/C=C\CCCC(=O)O` [PGE2, prostaglandin E2], the “bone formation (trichrome, calcein double labeling: MAR, BFR)” value [1] was “abolished”, the “bone formation (trichrome, calcein double labeling: MAR, BFR)” value [2] was “significant bone formation” and the “phosphorylation of CREB in hypothalamus, Western blot time course” value (CREB signaling in VMH; 12-week-old mice after PGE2 injection) was “increased gradually”. For the same compound, the “PGE2-induced CREB phosphorylation in VMH, immunostaining” value (CREB signaling in VMH; EP4Avil−/− mice, 3 mg per kg PGE2, 6 h) was “abolished”, the “CREB phosphorylation in VMH, immunostaining” value (CREB signaling in VMH; WT (EP4wt) mice, 3 mg per kg PGE2, 6 h after injection) was “increased significantly” and the “time of peak phosphorylation of CREB in hypothalamus” value (CREB signaling in VMH; Western blot, after PGE2 injection) was 6 h. The “activated (illuminated) DRG neurons, calcium imaging” value (DRG neurons) was “more illuminated DRG neurons”.

`CCCC[S+]([O-])c1sc2nc(-c3cccs3)cc(-c3ccccc3)c2c1N` (stereo not shown) [SW033291] was tested, and the “type H vessels in the regeneration area” value (15-PGDH [3]; EP4Avil−/− mice with or without injection of SW033291) was “almost undetectable”, the “regeneration of trabecular bone” value (15-PGDH [3]; EP4Avil−/− mice, 10 mg per kg per day SW033291) was “obstructed” and the “type H vessel (CD31hi Endomucinhi) growth in the regeneration area” value (15-PGDH [3]; EP4wt mice treated with SW033291) was “significantly increased”. For the same compound, the “trabecular bone regeneration (μCT, HE staining)” value (15-PGDH [3]; EP4wt mice, 10 mg per kg per day SW033291, relative to vehicle-treated controls) was “boosted trabecular bone regeneration significantly” and the “liver regeneration rate (BrdU and Ki67 staining)” value (15-PGDH [4]) was “decreased significantly”.

For diphtheria toxin [DTX], the “Sensory denervation (CGRP+ sensory nerves in femur)” value [5] was “effectively induced”, the amount of osteoid [5] was “significantly decreased” and the “bone formation (calcein double-labeling)” value [5] was “reduced”. For the same compound, the “bone loss (μCT, femur)” value [5] was “Significant bone loss”, the “bone mass in the vertebrae” value [5] was “decreased” and the “mineral apposition rate (calcein double-labeling)” value [5] was “reduced”. For the same compound, the “motor neural activity (pole tests and grip strength tests)” value [5] was “No motor neural activity was influenced”, the number of osteoblasts [5] was “significantly decreased” and the number of osteoclasts [5] was “unchanged”. For the same compound, the “sensory innervations in the vertebrae” value [5] was “decreased”, the “serum CTX level” value [5] was “unchanged” and the serum osteocalcin level [5] was “significantly decreased”.
